Earlier results in US20160375061A1, “COMPOSITION INVOLVED IN REGULATING ENERGY CYCLE, INFLAMMATION AND INSULIN RESISTANCE DYSFUNCTIONS, AND USE THEREOF PARTICULARLY IN CARDIOMETABOLIC DISEASES” (INTERNATIONAL NUTRITION RESEARCH COMPANY, priority 2013, published 2016).

Conditions: mutation of the gene transporter OCT1; normal daily doses 1 to 3 g/day

concentrations of metformin (saturation): 30 ± 19 ng/mL
SMILES: CN(C)C(=N)N=C(N)N [metformin]
